Data: ChEMBL document CHEMBL4837258, “Discovery of Novel UDP-N-Acetylglucosamine Acyltransferase (LpxA) Inhibitors with Activity against Pseudomonas aeruginosa” (J Med Chem, 2021)
Converted amounts (≈) assume the structure as drawn.

Experiments:
[1] = Aqueous solubility of compound incubated for 90 mins under shaking condition; type: physicochemical; details: buffer
[2] = physchem; details: 1-octanol/phosphate buffer, pH 7.4
[3] = Volume of distribution at steady state in CD1 mouse at 3 mg/kg, iv measured upto 7 hrs by LC-MS/MS analysis; type: ADME, organism-based; details: in vivo, read-out: Vdss
[4] = AUCinfinity in CD1 mouse at 3 mg/kg, iv pretreated with ABT followed by compound treatment and measured upto 7 hrs by LC-MS/MS analysis; type: ADME, organism-based; set-up: route intravenous, dose 3 mg/kg, time <=7; details: in vivo
[5] = AUCinfinity in CD1 mouse at 5 mg/kg, po pretreated with ABT followed by compound treatment and measured upto 7 hrs by LC-MS/MS analysis; type: ADME, organism-based; set-up: route oral, dose 5 mg/kg, time <=7; details: in vivo
[6] = Oral bioavailability in CD1 mouse at 5 mg/kg measured upto 7 hrs by LC-MS/MS analysis; type: ADME, organism-based; details: in vivo
[7] = AUCinfinity in CD1 mouse at 85 mg/kg, iv measured upto 7 hrs by LC-MS/MS analysis; type: ADME, organism-based; set-up: route intravenous, dose 85 mg/kg, time <=7; details: in vivo
[8] = Volume of distribution at steady state in CD1 mouse at 85 mg/kg, iv measured upto 7 hrs by LC-MS/MS analysis; type: ADME, organism-based; details: in vivo, read-out: Vdss
[9] = Volume of distribution at steady state in CD1 mouse at 3 mg/kg, iv pretreated with ABT followed by compound treatment and measured upto 7 hrs by LC-MS/MS analysis; type: ADME, organism-based; details: in vivo, read-out: Vdss
[10] = AUCinfinity in CD1 mouse at 3 mg/kg, iv measured upto 7 hrs by LC-MS/MS analysis; type: ADME, organism-based; set-up: route intravenous, dose 3 mg/kg, time <=7; details: in vivo
[11] = Oral bioavailability in CD1 mouse at 30 mg/kg pretreated with ABT followed by compound treatment and measured upto 7 hrs by LC-MS/MS analysis; type: ADME, organism-based; details: in vivo
[12] = AUCinfinity in CD1 mouse at 1 mg/kg, iv pretreated with ABT followed by compound treatment and measured upto 7 hrs by LC-MS/MS analysis; type: ADME, organism-based; set-up: route intravenous, dose 1 mg/kg, time <=7; details: in vivo
[13] = AUCinfinity in CD1 mouse at 5 mg/kg, iv pretreated with ABT followed by compound treatment and measured upto 7 hrs by LC-MS/MS analysis; type: ADME, organism-based; set-up: route intravenous, dose 5 mg/kg, time <=7; details: in vivo
[14] = AUCinfinity in CD1 mouse at 30 mg/kg, po pretreated with ABT followed by compound treatment and measured upto 7 hrs by LC-MS/MS analysis; type: ADME, organism-based; set-up: route oral, dose 30 mg/kg, time <=7; details: in vivo
[15] = AUCinfinity in CD1 mouse at 3 mg/kg, po pretreated with ABT followed by compound treatment and measured upto 7 hrs by LC-MS/MS analysis; type: ADME, organism-based; set-up: route oral, dose 3 mg/kg, time <=7; details: in vivo
[16] = Oral bioavailability in CD1 mouse at 3 mg/kg pretreated with ABT followed by compound treatment and measured upto 7 hrs by LC-MS/MS analysis; type: ADME, organism-based; details: in vivo
[17] = Volume of distribution at steady state in CD1 mouse at 5 mg/kg, iv pretreated with ABT followed by compound treatment and measured upto 7 hrs by LC-MS/MS analysis; type: ADME, organism-based; details: in vivo, read-out: Vdss
[18] = Volume of distribution at steady state in CD1 mouse at 1 mg/kg, iv pretreated with ABT followed by compound treatment and measured upto 7 hrs by LC-MS/MS analysis; type: ADME, organism-based; details: in vivo, read-out: Vdss

N#Cc1ccc(CN(Cc2nnc(N)o2)C(=O)CSc2ccccc2Cl)cn1
solubility at […] [1]: 340 µg/mL (≈ 820 µM)
logD at 2 h, 25 µM [2]: 1.4

N#Cc1cc(F)c(CN(Cc2nnc(N)o2)C(=O)CSc2cc(F)cc(F)c2Cl)c(F)c1
solubility at […] [1]: 60 µg/mL (≈ 123 µM)
logD at 2 h, 25 µM [2]: 2.4

N#Cc1ccc(CN(Cc2nnc(N)o2)C(=O)CSc2ccccc2OC(F)(F)F)c(F)c1
solubility at […] [1]: 90 µg/mL (≈ 187 µM)
logD at 2 h, 25 µM [2]: 1.6

[2H]C([2H])(Oc1cc(F)cc(F)c1C([2H])([2H])C([2H])([2H])[2H])C(=O)N(Cc1nnc(N)o1)Cc1ccc(C#N)cc1F
logD at 2 h, 25 µM [2]: 3

CCc1ccccc1SCC(=O)N(Cc1ccc(C#N)cc1)Cc1nnc(N)o1
logD at 2 h, 25 µM [2]: 2.5

[2H]C([2H])(Oc1cc(F)cc(F)c1C([2H])([2H])C([2H])([2H])[2H])C(=O)N(Cc1nnc(N)o1)Cc1ccc(S(N)(=O)=O)cc1F
Vd [3]: 0.34 L/kg
AUC(0-inf) [4]: 35300 ng·h/mL
AUC(0-inf) [5]: 7690 ng·h/mL
bioavailability [6]: 7.4%
AUC(0-inf) [7]: 24000 ng·h/mL
solubility at […] [1]: 460 µg/mL (≈ 908 µM)
Vd [8]: 10.3 L/kg
Vd [9]: 0.31 L/kg
logD at 2 h, 25 µM [2]: 2
AUC(0-inf) [10]: 62100 ng·h/mL

[2H]C([2H])(Oc1cc(F)cc(F)c1C([2H])([2H])C([2H])([2H])[2H])C(=O)N(Cc1ccc(C#N)nc1)Cc1nnc(N)o1
logD at 2 h, 25 µM [2]: 2.1

N#Cc1ccc(CN(Cc2nnc(N)o2)C(=O)CCc2ccccc2)cn1
logD at 2 h, 25 µM [2]: 1.5

N#Cc1ccc(CN(Cc2nnc(N)o2)C(=O)CSc2ccccc2Cl)cc1
solubility at […] [1]: 120 µg/mL (≈ 290 µM)
logD at 2 h, 25 µM [2]: 2

Nc1nnc(CN(Cc2ccc(S(N)(=O)=O)cc2F)C(=O)COc2cc(F)cc(F)c2C2CC2)o1
logD at 2 h, 25 µM [2]: 2.1

Nc1nnc(CN(Cc2ccc(O)nc2)C(=O)COc2cc(F)cc(F)c2C2CC2)o1
solubility at […] [1]: 150 µg/mL (≈ 348 µM)
logD at 2 h, 25 µM [2]: 2.2

CCc1c(F)cc(F)cc1O[C@H](C)C(=O)N(Cc1nnc(N)o1)Cc1ccc(C#N)cc1F
logD at 2 h, 25 µM [2]: 3

N#Cc1ccc(CN(Cc2nnc(N)o2)C(=O)COc2cc(F)cc(F)c2C2CC2)cn1
logD at 2 h, 25 µM [2]: 2.2

CCc1c(F)cc(F)cc1OCC(=O)N(Cc1nnc(N)o1)Cc1ccc(S(N)(=O)=O)cc1F
logD at 2 h, 25 µM [2]: 2.1

N#Cc1ccc(CN(Cc2nnc(N)o2)C(=O)COc2cc(F)cc(F)c2Cl)cn1
logD at 2 h, 25 µM [2]: 1.4

Nc1nnc(CN(Cc2ccc(S(N)(=O)=O)cc2F)C(=O)CSc2cc(F)cc(F)c2Cl)o1
solubility at […] [1]: 330 µg/mL (≈ 632 µM)
logD at 2 h, 25 µM [2]: 1.8

N#Cc1ccc(CN(Cc2nnc(N)o2)C(=O)CSc2ccccc2CC(F)(F)F)c(F)c1
solubility at […] [1]: 90 µg/mL (≈ 188 µM)
logD at 2 h, 25 µM [2]: 2.3

N#Cc1ccc(CN(Cc2nnc(N)o2)C(=O)CSc2ncccc2Cl)cn1
logD at 2 h, 25 µM [2]: 1.1

CCc1c(F)cc(F)cc1OCC(=O)N(Cc1ccc(C#N)cc1)Cc1nnc(N)o1
bioavailability [11]: 138%
AUC(0-inf) [12]: 218 ng·h/mL
AUC(0-inf) [13]: 1040 ng·h/mL
AUC(0-inf) [14]: 9180 ng·h/mL
AUC(0-inf) [15]: 323 ng·h/mL
bioavailability [16]: 48.6%
Vd [17]: 3.3 L/kg
Vd [18]: 3.97 L/kg
logD at 2 h, 25 µM [2]: 2.8

CCc1c(F)cc(F)cc1OCC(=O)N(Cc1nnc(N)o1)Cc1ccc(C#N)cc1F
logD at 2 h, 25 µM [2]: 2.7

N#Cc1ccc(CN(Cc2nnc(N)o2)C(=O)CSc2cc(F)cc(F)c2Cl)c(F)c1
logD at 2 h, 25 µM [2]: 2.6

N#Cc1ccc(CN(Cc2nnc(N)o2)C(=O)COc2ccccc2Cl)cn1
solubility at […] [1]: 850 µg/mL (≈ 2130 µM)
logD at 2 h, 25 µM [2]: 1
